According to patent US20080220497A1, “Modulation of protein functionalities” (priority 2003, published 2008):

What was measured:
[1] = biological target: T1, unphosphorylated p38-alpha kinase (Homo sapiens, UniProt Q16539, DEL261-261); assay: Thermal denaturation of unphosphorylated p38-alpha kinase; assay type: binding; settings: for ΔTm (° C.) relative to unphosphorylated apo p38: […] p38-alpha kinase, 15 μM small molecule
T1 construct: 48 (6×His-TEV tag, full length); 6×His-TEV tag (N); purchased Decode Genetics, Inc; host or cells: E. coli
Text: (§1) Denaturation was monitored by measuring the absolute absorbance of the solutions at an appropriate wavelength (typically 230 nm and 240 nm) as a function of temperature. As the protein became denatured, additional UV absorbing functional groups became exposed causing an increase in absorbance at the melting temperature. […] The thermal data were collected using Agilent spectrophotometers and ChemStation UV/Vis Thermal Denaturation software.
The final protein and buffer solution was mixed gently using a pipetter to minimize denaturing due to over aggressive mixing. The final solution was transferred to a 50 μL cuvette for analysis.
(§2) The final solution was transferred to a 50 μL cuvette for analysis.
(§3) A first derivative calculation with data smoothing was applied to the resulting data to report the point of inflection as the melting temperature.

[2] = biological target: T2, doubly phosphorylated p38-alpha kinase (Homo sapiens, UniProt Q16539); assay: Thermal denaturation of doubly phosphorylated p38-alpha kinase; assay type: binding; settings: for ΔTm (° C.) relative to doubly phosphorylated p38: 0.5 μM p38-alpha kinase, 20 μM small molecule
T2 construct: 6xHis ([…], seen only in the listing) (C); purchased Roche Applied Diagnostics
Description: as §1
The final concentration was 0.5 μM p38-alpha kinase and 20 μM small molecule. The final protein and buffer solution was mixed gently using a pipetter to minimize denaturing due to over aggressive mixing. The final solution was transferred to a 50 μL cuvette for analysis.
The protein and buffer solution was mixed gently using a pipetter to minimize denaturing due to over aggressive mixing. The final solution was transferred to a 50 μL cuvette for analysis.
as §3

[3] = biological target: T2, doubly phosphorylated p38-alpha kinase; assay: Fluorescence affinity assay, doubly phosphorylated p38-alpha kinase; assay type: binding; settings: ~24 nM enzyme; 1.0 uM SKF-86002; read-out: FP IC50 P-p38-alpha
Text: (§4) This fluorescence affinity assay is utilized in an affinity-based screen to identify small molecules which bind into switch control pockets of protein kinases. Binding of small molecule switch inhibitors displaces the switch control ligand phenylalanine of the DFG motif into an orientation which sterically blocks the ATP pocket. Such inhibitor-induced blockade of the ATP pocket is registered as an inhibition of binding of the fluoroprobe into the ATP pocket.
(§5) • 1. p38-alpha kinase • a. […] Polarstar Optima plate reader (BMG)
• 1. […] This dilution can be done automatically on a Tecan (or similar) robotic workstation or performed manually. • 3. Mix Solution A with the diluted compound solutions following Step 3 of Table 22. This step can be performed automatically on a Tecan (or similar) robotic workstation or performed manually. • 4. Incubate at 30° C. or room temp for 2 h, depending on protein stability. • 5. Read at emission wavelength 420 nm upon excitation at 340 nm. […]
(§6) A ratio greater than 1.0 indicates a preference for inhibiting the unphosphorylated form of p38-alpha kinase relative to the doubly phosphorylated form. A ratio less than 1.0 indicates a preference for inhibiting the doubly phosphorylated form of p38-alpha kinase relative to the unphosphorylated form.

[4] = biological target: T1, unphosphorylated p38-alpha kinase; assay: Fluorescence affinity assay, unphosphorylated p38-alpha kinase; assay type: binding; settings: for Ratio IC50s: doubly phosphorylated vs unphosphorylated p38-alpha, >1.0 = preference for unphosphorylated form; for IC50: ~24 nM enzyme, 1.0 uM SKF-86002, read-out: FP IC50 U-p38-alpha
Text: as §4, §5
• 1. […] This dilution can be done automatically on a Tecan (or similar) robotic workstation or performed manually. • 3. Mix Solution A with the diluted compound solutions following Step 3 of Table 22. This step can be performed automatically on a Tecan (or similar) robotic workstation or performed manually. • 4. Incubate at 30° C. or room temp for 2 h, depending on protein stability. • 5. Read at emission wavelength 420 nm upon excitation at 340 nm.
The reaction was initiated by addition of the enzyme. […] By comparison of RFU (relative fluorescence units) values with that of a control (in the absence of small molecule modulators), the percentage of inhibition at each concentration of the small molecules was calculated. IC50 values for the small molecule modulators were calculated from the % inhibition values obtained at a range of concentrations of the small molecule modulators using Prism (available from GraphPad, Inc.). When time-dependent inhibition was assessed, the plate was read at multiple reaction times such as 0.5, 1, 2, 3, 4 and 6 hours. The IC50 values were calculated at each time point. An inhibition was assigned as time-dependent if the IC50 values decrease with the reaction time (more than two-fold in four hours).
as §6

[5] = biological target: T3, V599E Braf kinase (Homo sapiens, UniProt P15056, V600E); assay: Thermal denaturation of oncogenic V599E Braf kinase; assay type: binding; settings: 1.4 μM V599E Braf kinase, 20 μM small molecule; read-out: ΔTm (° C.) relative to unphosphorylated B-Raf(V599E)
T3 construct: 6×His-tag (N); made in house; host or cells: Sf9 insect cells (baculovirus)
Description: as §1, §2, §2, §3

[6] = test system: Abl kinase; assay: Thermal denaturation of Abl kinase; assay type: binding, human; settings: 1 μM Abl kinase, 20 μM small molecule
Description: as §1
5 μL of 40 μM Abl kinase was mixed with 195 μL of the small molecule/buffer solution. The final concentration was 1 μM Abl kinase and 20 μM small molecule. The final protein and buffer solution was mixed gently using a pipetter to minimize denaturing due to over aggressive mixing. The final solution was transferred to a 50 μL cuvette for analysis.
Test solutions containing only the Abl kinase were prepared as follows: 5 μL of 40 μM Abl kinase was mixed with 195 μL Buffer to give a concentration of 1 μM Abl kinase in Buffer. The protein and buffer solution was mixed gently using a pipetter to minimize denaturing due to over aggressive mixing. The final solution was transferred to a 50 μL cuvette for analysis.
as §3

T1 sequence (Q16539 with tags, fused parts or gaps DEL261-261): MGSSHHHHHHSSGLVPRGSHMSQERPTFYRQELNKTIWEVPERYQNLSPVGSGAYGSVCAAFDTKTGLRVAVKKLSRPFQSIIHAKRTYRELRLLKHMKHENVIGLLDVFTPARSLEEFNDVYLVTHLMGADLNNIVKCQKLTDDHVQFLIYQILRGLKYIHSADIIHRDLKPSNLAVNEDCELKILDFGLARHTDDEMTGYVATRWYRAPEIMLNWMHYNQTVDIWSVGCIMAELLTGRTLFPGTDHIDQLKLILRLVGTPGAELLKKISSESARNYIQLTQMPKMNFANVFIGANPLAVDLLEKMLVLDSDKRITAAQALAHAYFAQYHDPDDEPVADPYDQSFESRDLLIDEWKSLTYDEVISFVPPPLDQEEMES
T3 sequence (P15056 with tags, fused parts or gaps V600E): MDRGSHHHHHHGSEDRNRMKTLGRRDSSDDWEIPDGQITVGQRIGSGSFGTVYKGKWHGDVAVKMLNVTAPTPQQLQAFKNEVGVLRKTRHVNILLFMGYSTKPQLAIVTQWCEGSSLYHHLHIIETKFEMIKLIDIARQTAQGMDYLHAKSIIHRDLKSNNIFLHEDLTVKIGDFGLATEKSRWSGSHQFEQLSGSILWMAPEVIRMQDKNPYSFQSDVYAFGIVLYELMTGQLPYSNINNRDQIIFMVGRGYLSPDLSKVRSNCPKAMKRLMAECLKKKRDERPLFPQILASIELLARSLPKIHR
T2 sequence (Q16539 with tags, fused parts or gaps): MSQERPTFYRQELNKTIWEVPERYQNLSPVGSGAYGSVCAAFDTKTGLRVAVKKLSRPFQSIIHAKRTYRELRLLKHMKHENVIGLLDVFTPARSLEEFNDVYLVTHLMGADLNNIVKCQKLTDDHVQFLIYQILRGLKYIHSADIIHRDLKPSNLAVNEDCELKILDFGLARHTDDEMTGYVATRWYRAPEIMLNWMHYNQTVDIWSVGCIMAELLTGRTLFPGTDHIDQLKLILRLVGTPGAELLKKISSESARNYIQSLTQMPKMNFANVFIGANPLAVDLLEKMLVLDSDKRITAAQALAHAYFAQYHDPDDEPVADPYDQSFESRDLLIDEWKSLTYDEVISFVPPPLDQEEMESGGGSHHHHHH

Structure (SMILES)	IC50 [3] [nM]	Ratio IC50s [4]	IC50 [4] [nM]	ΔTm (° C.) relative to unphosphorylated apo p38 [1] [°C]	ΔTm (° C.) relative to doubly phosphorylated p38 [2] [°C]	other results
CC(C)(C)c1cc(NC(=O)Nc2cccc(Cl)c2Cl)n(-c2cccc(CC(N)=O)c2)n1 [Example 69]						Thermal denaturation assay ΔTm ([1]; unphosphorylated p38-alpha kinase): 13.10 °; Thermal denaturation assay ΔTm ([2]; phosphorylated p38-alpha kinase): 9.1 °
CC(C)(C)c1cc(NC(=O)Nc2cccc3ccccc23)n(-c2ccc(OCC(=O)O)cc2)n1 [Example 92]	160	3.1	52			
CC(C)(C)c1cc(NC(=O)Nc2ccc(Cl)cc2)n(-c2ccc(CO)cc2)n1 [Example 61]	19	0.8	24	8.5	5.9	
NC(=O)Cc1cccc(-n2nc(-c3ccccc3)cc2NC(=O)Nc2cccc(Cl)c2Cl)c1 [Example 77]	57	1.1	25	8.0	5.3	
CC(C)(C)c1cc(NC(=O)Nc2cccc(Cl)c2Cl)n(-c2ccc3c(c2)CCC(=O)N3)n1 [Example 81]						ΔTm at 20 µM [5]: 17.3 °C
CC(C)(C)c1cc(NC(=O)Nc2cccc3ccccc23)n(-c2ccc(C(O)C(F)(F)F)cc2)n1 (centres unmarked) [Example 73]				8.9	5.9	
CC(C)(C)c1cc(NC(=O)Nc2cccc(Cl)c2Cl)n(-c2ccc(CC(N)=O)cc2)n1 [Example 76]	26			13.1	9.4	
CC(C)(C)c1cc(NC(=O)Nc2cccc(Oc3cccnc3)c2)n(-c2cccc(CC(N)=O)c2)n1 [Example 93, 1-(1-(3-(2-amino-2-oxoethyl)phenyl)-3-tert-butyl-1H-pyrazol-5-yl)-3-(3-(pyridin-3-yloxy)phenyl)urea]	39	2.4	16			
CC1(O)CCN(C(=O)Cc2ccc(-n3nc(C(C)(C)C)cc3NC(=O)Nc3cccc(Cl)c3Cl)cc2)CC1 [Example 70]	26	2.3	26	12.6	8.7	
CC(C)(C)c1cc(NC(=O)Nc2cccc3ccccc23)n(-c2cccc(CO)c2)n1 [Example 71]	19	1.1	17	10.9	9.6	
CC(C)(C)c1cc(NC(=O)Nc2cccc(Cl)c2Cl)n(-c2ccc3c(c2)CCNC3=O)n1 [Example 82]						ΔTm at 20 µM [5]: 13.5 °C
CC(C)(C)c1cc(NC(=O)Nc2cccc(Cl)c2Cl)n(-c2cccc(C(=N)N)c2)n1 [Example 90]						ΔTm (° C.) relative to unphosphorylated Abl [6]: 1.3 °C
CC(C)(C)c1cc(NC(=O)Nc2cccc(Cl)c2Cl)n(-c2cc(CNC(=O)NS(C)(=O)=O)c3ccccc3c2)n1 [Example 86]						ΔTm (° C.) relative to unphosphorylated Abl [6]: 4.0 °C
Cc1ccc(NC(=O)Nc2cc(C(C)(C)C)nn2-c2ccc3c(c2)CCNC3)cc1Nc1ncccn1 [Example 94, 1-(3-tert-butyl-1-(1,2,3,4-tetrahydroisoquinolin-6-yl)-1H-pyrazol-5-yl)-3-(4-methyl-3-(pyrimidin-2-ylamino)phenyl)urea]	19	1.9	10			
CC(=O)N1CCc2ccc(-n3nc(C(C)(C)C)cc3NC(=O)Nc3cccc(Cl)c3Cl)cc2C1 [Example 88]						ΔTm (° C.) relative to unphosphorylated Abl [6]: 1.2 °C
CC(C)(C)c1cc(NC(=O)Nc2cccc3ccccc23)n(-c2cccc(C(C)(C)O)c2)n1 [Example 83]						ΔTm at 20 µM [5]: 14.9 °C
CC(C)(C)c1cc(NC(=O)Nc2cccc(Cl)c2Cl)n(-c2ccc(CC(=O)N3CCS(=O)(=O)CC3)cc2)n1 [Example 96]	8	3.0	7			
O=C(Nc1cccc(Cl)c1Cl)Nc1cc(-c2ccccc2)nn1-c1cccc(CO)c1 [Example 63]	85		28	9.4	5.0	
NC(=O)Cc1cccc(-n2nc(-c3cscn3)cc2NC(=O)Nc2cccc(Cl)c2Cl)c1 [Example 78]	195	1.5	233	6.7	3.9	
CC(C)(C)c1cc(NC(=O)Nc2cccc3ccccc23)n(-c2cccc(C(C)(C)O)c2)n1 [Example 75]	119	0.7	165	8.2	5.6	
CNC(=O)Cc1cccc(-n2nc(C(C)(C)C)cc2NC(=O)Nc2cccc(Cl)c2Cl)c1 [Example 79]						ΔTm at 20 µM [5]: 12 °C
CC(C)(C)c1cc(NC(=O)Nc2ccc(Cl)cc2)n(-c2cccc(CO)c2)n1 [Example 85]						ΔTm at 20 µM [5]: 2.9 °C
CC(C)(C)c1cc(NC(=O)Nc2cccc(Cl)c2Cl)n(-c2ccc(CC(N)=O)cc2)n1 [Example 84]						ΔTm at 20 µM [5]: 12.5 °C
CC(C)(C)c1cc(NC(=O)Nc2cccc(Cl)c2Cl)n(-c2cc(CO)c3ccccc3c2)n1 [Example 87]						ΔTm (° C.) relative to unphosphorylated Abl [6]: 3.6 °C
CC(C)(C)c1cc(NC(=O)Nc2cccc(Cl)c2Cl)n(-c2ccc3c(c2)C(N)=NCC3)n1 [Example 89]						ΔTm (° C.) relative to unphosphorylated Abl [6]: 1.8 °C
COc1ccc(-n2nc(C(C)(C)C)cc2NC(=O)Nc2cccc(Cl)c2Cl)cc1 [Example 91]						ΔTm (° C.) relative to unphosphorylated Abl [6]: 12.5 °C
